± gives the expanded uncertainty stated by the source.
What was measured:
[1] = 298.15 K; 101.33 kPa; Liquid; Vibrating tube method
[2] = Boiling temperature at pressure P; conditions: 101.33 kPa; Liquid; Ebulliometric method (Recirculating still)

| mass density [1] | Boiling temperature at pressure P [2] | SMILES |
| --- | --- | --- |
| 928.73 ± 2 kg/m3 | 135.47 ± 0.1 °C | CCOCCO [2-ethoxyethan-1-ol] |
| 965.31 ± 2 kg/m3 | 124.52 ± 0.1 °C | COCCO [2-methoxyethan-1-ol] |
| 766.29 ± 2 kg/m3 | 100.73 ± 0.1 °C | CC1CCCCC1 [methylcyclohexane] |
